This note sets out measurements from patent US8865724B2, “Preparation of 2-methyl-4-amino-5(substituted-1H-1,2,3-triazolyl)methylpyrimidine derivatives and microbicidal activity thereof” (Central China Normal University, priority 2011, dated 2014).

Series [1] concerns tobacco brown spot. Description: microbe, parasite or virus in culture. Format: cell-based, Alternaria alternate (Fries) Keissler. The settings on record: 48 h, testing concentration of 100 μg/g; Table 4; read-out: Tobacco brown spot Average inhibition rate (%).
Series [2] has as its system Cucumber Angular Leaf Spot. In words: Microbicidal activity on cucumber seedlings, spray then inoculation (Embodiment 7). The settings on record: Cucumis sativus, read-out: Cucumber bacterial spot (%), controlling effect.
Description: Testing Materials: Strain: Cucumber Angular Leaf Spot
Testing method: a cucumber seedling at the stage of 2 seminal leaves was inoculated by spraying a suspension of Cucumber Angular Leaf Spot. Testing agents and control agents were sprayed uniformly on the seminal leaves at A.M. of a sunshine day respectively. After 2 hours, the leaves were inoculated with pathogenic microbes and cultured at humidity. After full occurrence of disease in control group, state of illness was examined according to grading standards, and the controlling effects were measured.
Series [3] deals with Rice Sheath Blight Disease. In words: Microbicidal activity, spray then strip inoculation (Embodiment 8). To be noted: Oryza sativa, read-out: Rice Sheath Blight Disease Average inhibition rate (%).
Description: (§1) (Pseudomonassyringaepv. tomato (Okabe) Young, Dye & Wilkie), Cucumber Angular Leaf Spot, Rice Sheath Blight Disease (Rhizoctonia solani), Corynespora Leaf Spot of Cucumber (Corynespora cassiicola), Downy Mildew of Cucumber (Cucumber Downy Mildew).
(§2) Testing agents and control agents were sprayed uniformly at A.M. of a sunshine day on the cucumber seminal leaves. After 2 hours, the leaves were inoculated with pathogenic microbes and cultured at humidity. […] Strip inoculation is used for Rice Sheath Blight Disease and phytophthora blight of pepper, in which the liquor was sprayed and after 2 hours, inoculation of strips was performed followed by culturing at humidity. After full occurrence of diseases in the control group, state of illness was examined according to grading standards, and a disease index and inhibition rate were calculated.
In series [4] the test system is anthracnose of cucumber. In words: Spawn growth rate on agar plates (Embodiment 9). Format: cell-based, GloeosporiumorbiculareArs. The settings on record: 48 h; testing concentration of 100 μg/g; Table 5.
Series [5] deals with early blight of tomato. In words: Spawn growth rate on agar plates (Embodiment 9). The settings on record: 48 h; testing concentration of 100 μg/g; Table 5. Format: cell-based, Alternaria solania.
Series [6] concerns gray mold of cucumber. In words: Spawn growth rate on agar plates (Embodiment 9). Format: cell-based, Botrytis cinerea. To be noted: 48 h, testing concentration of 100 μg/g; Table 4; read-out: Gray mold of cucumber Average inhibition rate (%).
The subject of series [7] is wheat scab. In words: microbe, parasite or virus in culture. Format: cell-based, Gibberella zeae. The settings on record: 48 h, read-out: Wheat scab Average inhibition rate (%).
For series [8], the system named is Downy Mildew of Cucumber. In words: Microbicidal activity on cucumber seedlings, spray then spore inoculation (Embodiment 8). The settings on record: Cucumis sativus, read-out: Downy Mildew of Cucumber Average inhibition rate (%).
Description: as §1, §2
The subject of series [9] is Cucumber Angular Leaf Spot. Description: Microbicidal activity on cucumber seedlings, spray then inoculation (Embodiment 8). The settings on record: Cucumis sativus, read-out: Cucumber Angular Leaf Spot Average inhibition rate (%).
Description: as §1, §2
Series [10] concerns Corynespora Leaf Spot of Cucumber. In words: Microbicidal activity on cucumber seedlings, spray then spore inoculation (Embodiment 8). To be noted: Corynespora, in Cucumis sativus, read-out: Corynespora Leaf Spot of Cucumber Average inhibition rate (%).
Description: as §1, §2

As to `Cc1ncc(Cn2cc(COC(=O)c3ccc([N+](=O)[O-])cc3)nn2)c(N)n1` [Compound 32], the inhibition of growth at 100 µg/g in [1] is 87%; in [4], 67%; in series [5], 63%; in [6], 59%. The pest or weed control at 500 µg/g in [2] and in series [3] was 60% in each case.
Turning to `Cc1ncc(Cn2cc(COc3ccc(Cl)cc3)nn2)c(N)n1` [Compound 2], the melting point (usually the temperature of the solid-liquid transition) is 168 to 170 °C. Further, the inhibition of growth at 100 µg/g in series [1] came out at 52%. Moreover, the inhibition of growth at 100 µg/g in series [7] is 51%. Moreover, in series [8], the pest or weed control at 500 µg/g was determined as 75%. Further, the pest or weed control at 500 µg/g in [9] turned out to be 60%. In addition, the pest or weed control at 500 µg/g in series [3] worked out at 80%. The pest or weed control at 500 µg/g in [10] was found to be 55%. In series [4], this compound showed an inhibition of growth at 100 µg/g of 50%. In series [6], the inhibition of growth at 100 µg/g worked out at 73%.
As to `Cc1ncc(Cn2cc(COC(=O)c3cccc(Cl)c3)nn2)c(N)n1` [Compound 39], the melting point lay within 165 to 166 °C. The inhibition of growth at 100 µg/g in series [1] turned out to be 50%. Also, in [9], the pest or weed control at 500 µg/g worked out at 10%. Besides, the pest or weed control at 500 µg/g in series [2] was 60%. The pest or weed control at 500 µg/g in [3] is 60%. In series [4], the inhibition of growth at 100 µg/g stood at 52%. Further, the inhibition of growth at 100 µg/g in series [6] turned out to be 84%.
Compound `Cc1ncc(Cn2cc(COc3ccc(Cl)cc3Cl)nn2)c(N)n1` [Compound 10] showed a melting point of 175 to 177 °C. The inhibition of growth at 100 µg/g in series [1] was determined as 58%. Besides, the pest or weed control at 500 µg/g in series [8] worked out at 50%. In addition, the pest or weed control at 500 µg/g in series [9] turned out to be 60%. Moreover, the pest or weed control at 500 µg/g in series [3] came to 70%. The pest or weed control at 500 µg/g in [10] is 70%. This compound came in with an inhibition of growth at 100 µg/g in [4] of 64%. Moreover, in [6], the inhibition of growth at 100 µg/g came out at 56%.
In turn, `Cc1ncc(Cn2cc(COC(=O)c3cc([N+](=O)[O-])cc([N+](=O)[O-])c3)nn2)c(N)n1` [Compound 35] returned a melting point of 142 to 143 °C. Besides, in series [1], the inhibition of growth at 100 µg/g was determined as 75%. Moreover, the pest or weed control at 500 µg/g in series [9] came out at 80%. The pest or weed control at 500 µg/g in series [2] was 45%. Also, in [3], the pest or weed control at 500 µg/g amounted to 50%. The compound also yielded an inhibition of growth at 100 µg/g in series [4] of 50%. Further, the inhibition of growth at 100 µg/g in series [6] turned out to be 49%.
For `Cc1ncc(Cn2cc(COc3cccc(C(F)(F)F)c3)nn2)c(N)n1` [Compound 4], the melting point was 160 to 161 °C. The inhibition of growth at 100 µg/g in series [1] is 66%. The pest or weed control at 500 µg/g in series [8] was 35%. In series [9], the pest or weed control at 500 µg/g is 60%. Moreover, the pest or weed control at 500 µg/g in series [3] stood at 60%. Further, the pest or weed control at 500 µg/g in series [10] came out at 70%. In series [4], this compound had an inhibition of growth at 100 µg/g of 65%. Also, the inhibition of growth at 100 µg/g in [5] came out at 51%. For the same compound, the inhibition of growth at 100 µg/g in [6] amounted to 77%.
